Experimental data reported in ChEMBL document CHEMBL3856263, “Sesquiterpenes from the roots of Lindera strychnifolia with inhibitory effects on nitric oxide production in RAW 264.7 cells” (Bioorg Med Chem Lett, 2016).

Assays:
[1] = Antiinflammatory activity against LPS-induced mouse RAW264.7 cells assessed as inhibition of NO production pretreated for 1 hr followed by LPS stimulation for 24 hrs by Griess assay; format: functional, cell-based
Mus musculus = species on record: Mus musculus; experiment: Cytotoxicity against mouse RAW264.7 cells at <25 uM by MTT assay; format: toxicity, cell-based

Row | SMILES | IC50 [1] | Activity (Mus musculus)
1 | N=C(N)NN [PIMAGEDINE] | 18.4 µM | –
2 | CC1=C2[C@@H]3OC(=O)[C@@]4(CC/C=C(\C)C[C@@]2(O)OC1=O)O[C@@H]34 | > 25 µM | Non-Toxic
3 | CC1=C2C[C@@H]3[C@@](C)(O)[C@H]4C[C@H]4[C@]3(C)C[C@@H]2OC1=O | – | Non-Toxic
4 | C=C1[C@H]2CC3=C(C)C(=O)O[C@H]3C[C@]2(C)[C@H]2C[C@@H]12 | 15.4 µM | Non-Toxic
5 | C=C1[C@H]2C[C@H]2[C@]2(C)C[C@]3(O)OC(=O)C(C)=C3[C@H](OC(C)=O)[C@H]12 | – | Non-Toxic
6 | CC(=O)O[C@H]1C2=C(C)C(=O)O[C@@]2(O)C[C@@]2(C)[C@@H]3C[C@@H]3[C@](C)(O)[C@@H]12 | 12.8 µM | Non-Toxic
7 | C=C1[C@H]2C[C@H]2[C@]2(C)C[C@@]3(O)OC(=O)C(C)=C3[C@H](OC(C)=O)[C@H]12 | – | Non-Toxic
8 | Cc1coc2c1[C@H]1C=C(CC[C@@H]3O[C@@]3(C)C2)C(=O)O1 [PSEUDONEOLINDERANE] | > 25 µM | Non-Toxic
9 | CC1=C2C(=O)[C@@H]3[C@](C)(O)[C@H]4C[C@H]4[C@@]3(C)C[C@H]2OC1=O | 22.5 µM | Non-Toxic
10 | C=C1[C@H]2C[C@H]2[C@]2(C)C[C@@]3(O)OC(=O)C(C)=C3[C@H](OC)[C@H]12 | 21.6 µM | Non-Toxic
11 | C=C1CC=C[C@@]2(C)C[C@@]3(O)OC(=O)C(C)=C3C[C@H]12 | > 25 µM | Non-Toxic
12 | CC1=C2[C@H](O)[C@@H]3[C@@](C)(O)[C@H]4C[C@H]4[C@]3(C)C[C@]2(O)OC1=O | 14.6 µM | Non-Toxic
13 | CC1=C2C[C@@H]3[C@@](C)(O)[C@H]4C[C@H]4[C@]3(C)C[C@]2(O)OC1=O | 9.6 µM | Non-Toxic
14 | COC(=O)/C(C)=C1\C(=O)O[C@]2(C)[C@@H]3C[C@@H]3[C@@](C)(CO)[C@H]2[C@@H]1O | > 25 µM | Non-Toxic
15 | C=C1[C@H]2C[C@H]2[C@]2(C)C[C@H]3OC(=O)C(C)=C3[C@H](O)[C@H]12 | 12.3 µM | Non-Toxic
16 | CO[C@@]1(C)[C@H]2C[C@H]2[C@]2(C)C[C@@H]3OC(=O)C(C)=C3C[C@@H]21 | 6.3 µM | Non-Toxic
17 | C=C1Cc2occ(C)c2C2C=C(CC[C@H]1O)C(=O)O2 (stereo not given in full) | 9 µM | Non-Toxic
